Experimental data reported in PMC3933693, “Novel Inhibitors of Mitochondrial sn-Glycerol 3-phosphate Dehydrogenase” (PLoS ONE, 2014).

Columns and labels:
mGPDH = target: T1, mGPDH (Rattus norvegicus, UniProt P35571); assay: Superoxide/H2O2 production by mGPDH in isolated skeletal muscle mitochondria (Amplex UltraRed); format: biochemical; details: for mGPDH (% change from DMSO): primary screen, ∼2.5 µM, average of duplicates, 16.7 mM glycerol phosphate, no added calcium; for IC50: Fig. 4 structure/activity microplate assay, 0.08–80 µM, estimated, means of two replicates, read-out: mGPDH H2O2 production IC50; for inhibition at 80 µM: read-out: mGPDH H2O2 production (% change at 80 μM)
T1 construct: Activity of mGPDH in frozen-thawed skeletal muscle mitochondria was measured; from tissue; host or cells: skeletal muscle mitochondria
T1 sequence (P35571 43-727): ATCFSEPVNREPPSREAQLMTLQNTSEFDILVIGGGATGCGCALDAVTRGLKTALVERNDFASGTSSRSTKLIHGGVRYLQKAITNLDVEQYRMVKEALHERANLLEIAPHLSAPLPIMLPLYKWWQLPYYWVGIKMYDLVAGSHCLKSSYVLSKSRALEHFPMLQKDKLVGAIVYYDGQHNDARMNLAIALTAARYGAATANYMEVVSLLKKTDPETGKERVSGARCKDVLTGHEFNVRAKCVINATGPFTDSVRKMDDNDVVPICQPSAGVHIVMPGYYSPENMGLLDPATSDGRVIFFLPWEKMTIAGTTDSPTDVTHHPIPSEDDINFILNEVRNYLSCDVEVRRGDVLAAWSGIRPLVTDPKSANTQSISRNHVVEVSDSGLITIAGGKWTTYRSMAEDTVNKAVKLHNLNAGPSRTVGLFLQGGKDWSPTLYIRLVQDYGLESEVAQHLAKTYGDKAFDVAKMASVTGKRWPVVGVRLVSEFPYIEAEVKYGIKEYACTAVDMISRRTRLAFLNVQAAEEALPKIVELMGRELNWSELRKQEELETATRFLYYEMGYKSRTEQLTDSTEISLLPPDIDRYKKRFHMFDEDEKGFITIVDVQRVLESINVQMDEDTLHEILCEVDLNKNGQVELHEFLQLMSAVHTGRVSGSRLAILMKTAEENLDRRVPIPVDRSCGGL

[1] = test system: flavin mononucleotide site of complex I (site IF) plus matrix NAD-linked dehydrogenases (site IF/DH); assay: Site-specific H2O2 production from site IF/DH in skeletal muscle mitochondria; format: biochemical, rat; details: primary screen, ∼2.5 µM, average of duplicates
Protocol: (§1) Superoxide was measured as H2O2 after dismutation by endogenous or exogenous superoxide dismutase. Rates of total superoxide/H2O2 production were measured fluorimetrically using Amplex UltraRed in the presence of exogenous superoxide dismutase and horseradish peroxidase in a Varian Cary Eclipse fluorimeter as previously described. Rates of production from specific sites were determined as previously described using the following eight conditions: flavin mononucleotide site of complex I (site IF) plus matrix NAD-linked dehydrogenases (collectively "site IF/DH") with 5 mM glutamate, 5 mM malate, and 4 µM rotenone; ubiquinone-binding site of complex I (site IQ) with either 0.5 or 5 mM succinate; flavin site of complex II (site IIF) with either 15 µM palmitoylcarnitine, 2.5 µM antimycin A, and 2 µM myxothiazol or 0.5 mM succinate, 4 µM rotenone, 2.5 µM antimycin A, and 2 µM myxothiazol, [31]; mGPDH with 1.7 mM glycerol phosphate, 4 µM rotenone, 2.5 µM antimycin A, 2 µM myxothiazol, 1 mM malonate, and 250 nM free calcium; outer ubiquinone-binding site of complex III (site IIIQo) with either 0.5 or 5 mM succinate, 4 µM rotenone and 2.5 µM antimycin A [32]. Candidate small-molecule inhibitors were added prior to the start of measurements and H2O2 calibration curves were performed in the presence of tested compounds.
(§2) 3,200 compounds were tested initially at 2.5 µM (0.025% DMSO final) in duplicate on different plates against a panel of five distinct assays of site-specific superoxide/H2O2 production as described in the previous section with minor changes. […] Endpoint fluorescence was measured on a Perkin Elmer Victor V3 fluorescent plate reader. The fluorescence intensity of each well was normalized as % change from the average of eight DMSO controls on the same plate. Duplicate wells of each of four modulators of mitochondrial metabolism known to inhibit specific sites of superoxide/H2O2 production were included on each plate as positive controls and the resulting fluorescence levels set as −100% change from DMSO controls. Known inhibitors included 20 mM aspartate (for site IF/DH), 1 µM FCCP (for site IQ), 10 mM malonate (for site IIF), and 2 µM myxothiazol (for site IIIQo). The background fluorescence of the FCCP wells in the site IQ assay was used to normalize mGPDH plates run in parallel. To minimize position-dependent effects across each assay plate, Tukey’s two-way median polish was applied to fluorescence values after initial normalization, [36]. Tukey’s polish is an iterative subtraction of the median row and column values from each well’s given row or column. The procedure is repeated until sequential medians for each row and column are zero and positional gradients in fluorescence are eliminated.

[2] = test system: ubiquinone-binding site of complex I (site IQ); assay: Site-specific H2O2 production from site IQ in skeletal muscle mitochondria; format: biochemical, rat; details: 5 mM succinate; for IQ (% change from DMSO): primary screen, ∼2.5 µM, average of duplicates;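 on all read-outs here: H2O2 from superoxide detected by Amplex UltraRed fluorescence with added superoxide dismutase and horseradish peroxidase, endpoint read 30–40 min after substrate addition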
[3] = target: T2, flavin site of complex II (site IIF) (Rattus norvegicus, UniProt Q920L2); assay: Site-specific H2O2 production from site IIF in skeletal muscle mitochondria; format: biochemical; details: primary screen, ∼2.5 µM, average of duplicates; palmitoylcarnitine
T2 construct: from tissue; host or cells: skeletal muscle mitochondria
Protocol: as §1, §2

[4] = target: T3, outer ubiquinone-binding site of complex III (site IIIQo) (Rattus norvegicus, UniProt P00159+P20788); assay: Site-specific H2O2 production from site IIIQo in skeletal muscle mitochondria; format: biochemical; details: primary screen, ∼2.5 µM, average of duplicates; 5 mM succinate
T3 construct: from tissue; host or cells: skeletal muscle mitochondria
Protocol: as §1, §2

[5] = test system: skeletal muscle mitochondria; assay: Mitochondrial membrane potential (ΔΨm, TMRM) powered by glutamate plus malate; format: biochemical, rat; details: for ΔΨm (% change from DMSO): primary screen, ∼2.5 µM, average of duplicates, glutamate and malate; for ΔΨm with Glu + Mal + Nig (% change at 80 μM) / ΔΨm with Glu + Mal (% change at 80 μM): 5 mM glutamate, 5 mM malate; for ΔΨm with Glu + Mal + Nig (% change at 80 μM): with nigericin; for ΔΨm with Glu + Mal (% change at 80 μM): without nigericin
Protocol: (§3) Mitochondrial membrane potential (ΔΨm) was estimated fluorimetrically as described previously [33] on the Varian fluorimeter, except the potentiometric dye TMRM was used in quench-mode in place of safranine O [34]. […] The effect of putative small-molecule inhibitors was normalized as the % change in fluorescence between vehicle treatment and complete depolarization by the uncoupler carbonyl cyanide-4-(trifluoromethoxy)phenylhydrazone (FCCP, 2 µM) added at the end of each run. When indicated, the K^+/H^+ exchanger nigericin (80 ng ⋅ ml^−1) was added to collapse the pH gradient across the mitochondrial inner membrane (ΔpH) and maximize ΔΨm.
(§4) All assays were performed with stirring at 37°C.
(§5) Additionally, four microplate assays for ΔΨm were run in parallel to the H2O2 assays. These assays were as described under “Measurement of mitochondrial H2O2 production and membrane potential” except that each substrate condition was assayed in a separate microplate. […] Plates were incubated in the dark at room temperature for 30–40 min (H2O2) or 10–15 min (ΔΨm) after the addition of substrate, and endpoint fluorescence was measured on the Victor plate reader. […] Endpoints for the ΔΨm assays were determined in pilot experiments as the times for TMRM accumulation to reach a steady state. At room temperature, this was typically ∼ 5 min and remained stable for at least 30 min. Endpoint fluorescence values were normalized as described in the previous section with wells containing FCCP serving as positive controls for the ΔΨm assays.

[6] = test system: skeletal muscle mitochondria; assay: Mitochondrial membrane potential (ΔΨm, TMRM) powered by glycerol phosphate; format: biochemical, rat; details: 80 μM; 16.7 mM glycerol phosphate, 4 µM rotenone, nigericin
Protocol: as §3, §4, §5

T2 sequence (Q920L2 35-656): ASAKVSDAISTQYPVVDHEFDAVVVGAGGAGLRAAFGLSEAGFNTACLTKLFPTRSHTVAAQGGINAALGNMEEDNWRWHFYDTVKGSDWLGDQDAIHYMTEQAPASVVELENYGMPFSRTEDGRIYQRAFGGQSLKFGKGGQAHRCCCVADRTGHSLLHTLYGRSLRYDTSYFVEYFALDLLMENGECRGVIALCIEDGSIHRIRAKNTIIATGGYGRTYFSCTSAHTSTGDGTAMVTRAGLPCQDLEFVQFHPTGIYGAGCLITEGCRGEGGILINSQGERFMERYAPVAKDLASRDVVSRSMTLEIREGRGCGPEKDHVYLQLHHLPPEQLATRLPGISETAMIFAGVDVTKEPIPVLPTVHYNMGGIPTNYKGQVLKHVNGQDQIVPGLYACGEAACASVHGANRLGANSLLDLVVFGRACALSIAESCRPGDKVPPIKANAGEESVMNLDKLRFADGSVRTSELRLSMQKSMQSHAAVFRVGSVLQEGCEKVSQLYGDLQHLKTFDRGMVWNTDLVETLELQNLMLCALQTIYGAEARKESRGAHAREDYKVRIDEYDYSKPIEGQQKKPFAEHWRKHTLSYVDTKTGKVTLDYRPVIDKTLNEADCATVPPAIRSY
T2 sequence (P21913 31-282 partner): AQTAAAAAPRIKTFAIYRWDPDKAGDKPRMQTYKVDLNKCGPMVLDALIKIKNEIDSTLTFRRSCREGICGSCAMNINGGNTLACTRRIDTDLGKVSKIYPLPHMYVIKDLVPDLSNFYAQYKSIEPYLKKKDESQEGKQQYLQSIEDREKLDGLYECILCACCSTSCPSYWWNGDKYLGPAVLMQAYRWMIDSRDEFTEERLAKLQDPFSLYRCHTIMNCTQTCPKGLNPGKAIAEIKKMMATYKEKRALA
T2 sequence (Q641Z9 30-169 partner limits assumed): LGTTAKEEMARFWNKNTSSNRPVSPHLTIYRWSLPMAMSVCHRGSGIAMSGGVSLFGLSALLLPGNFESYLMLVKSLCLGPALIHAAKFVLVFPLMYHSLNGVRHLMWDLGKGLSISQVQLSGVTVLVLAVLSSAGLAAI
T2 sequence (Q6PCT8 57-159 partner): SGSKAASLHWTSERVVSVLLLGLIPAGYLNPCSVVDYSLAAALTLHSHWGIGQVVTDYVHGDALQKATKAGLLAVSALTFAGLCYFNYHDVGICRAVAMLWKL

Row | SMILES | mGPDH (% change from DMSO) (mGPDH) [%] | IF/DH (% change from DMSO) [1] [%] | IQ (% change from DMSO) [2] [%] | IIF (% change from DMSO) [3] [%] | IIIQo (% change from DMSO) [4] [%] | ΔΨm (% change from DMSO) [5] [%] | IC50 (mGPDH) [µM] | inhibition at 80 µM (mGPDH) [%] | IQ H2O2 production with 5 mM Suc (% change at 80 μM) [2] [%] | ΔΨm with Glu + Mal + Nig (% change at 80 μM) [5] [%] | ΔΨm with Glu + Mal (% change at 80 μM) [5] [%] | ΔΨm with GP + Nig (% change at 80 μM) [6] [%]
1 | Cc1ccc(S(=O)(=O)CCC#N)cc1C [compound 5210670] | -12.4 | -4.6 | 0.4 | -0.354 | -15.9 | -0.074 | – | – | – | – | – | –
2 | Cc1ccc(S(=O)(=O)c2cc(O)ccc2O)cc1C [compound 5210729] | -21.9 | -32.6 | -40.9 | -53.2 | -50.4 | -0.6 | – | – | – | – | – | –
3 | O=C(O)CSc1cccc(C(=O)Nc2ccc(Br)cc2)c1 [compound 5210767] | -14.1 | -0.5 | -0.0908 | 1.3 | -0.0236 | -0.00715 | – | – | – | – | – | –
4 | CC(=O)c1c(C)n(-c2ccccc2)c2ccc(O)cc12 [compound 5215317] | -14.1 | -34.7 | -13.7 | -26.9 | -6.4 | 0.144 | – | – | – | – | – | –
5 | COc1ccc(C(=O)Nc2ccc(S(=O)(=O)Nc3nc(C)cc(C)n3)cc2)c(OC)c1 [compound 5219504] | -29.8 | -30.7 | -19.3 | -44.3 | -8.8 | 1.4 | – | – | – | – | – | –
6 | CC1(C)CC(=O)C2=C(C1)Nc1cc(Cl)ccc1S2 [compound 5219661] | -22.7 | -91.8 | -52.0 | -32.9 | -20.2 | -1.8 | – | – | – | – | – | –
7 | Cc1nc2ccc(Cl)cc2c2c(N)c3ccccc3n12 [compound 5219795] | -23.3 | -30.5 | -14.8 | -49.0 | -23.3 | 0.6 | – | – | – | – | – | –
8 | CC1=Nc2c([nH]c3ccccc23)-c2cc(C)ccc2N1.Cl [compound 5219818] | -31.6 | -40.2 | -50.1 | -51.0 | -36.6 | -0.5 | – | – | – | – | – | –
9 | CCCCSc1nnc2c(n1)[nH]c1ccc(C)cc12 [compound 5225633] | -10.0 | 16.4 | -2.4 | -0.9 | -13.3 | 1.1 | – | – | – | – | – | –
10 | CCC1CCCCN1C/C=C/c1ccc(N(C)C)cc1 (centres unmarked) [compound 5429735] | -10.7 | -23.1 | -0.0537 | -4.3 | -11.7 | 0.3 | – | – | – | – | – | –
11 | COc1ccc(CNc2cccc(N(C)C)c2)cc1 [compound 5452512] | -29.7 | -33.7 | -34.0 | -24.5 | -33.8 | 0.0119 | – | – | – | – | – | –
12 | COc1ccc(NCC2CCCCC2)cc1 [compound 5454631] | -20.6 | -52.2 | -40.9 | -25.6 | -14.3 | -0.00487 | – | – | – | – | – | –
13 | c1coc(CNc2ccc3c(c2)OCO3)c1 [compound 5457094] | -20.2 | -27.2 | -27.2 | -27.6 | -17.4 | 0.527 | – | – | – | – | – | –
14 | O=C(Nc1ccc(O)cc1)c1ccco1 [compound 5471987] | -26.4 | -52.3 | -9.9 | -28.0 | -8.4 | 0.0125 | – | – | – | – | – | –
15 | Cn1c(/C=C/c2ccc(Cl)cc2)nc2ccccc21 [compound 5663561] | -12.9 | -9.1 | -3.9 | -11.9 | -4.7 | 0.0494 | – | – | – | – | – | –
16 | Nc1nc(-c2ccc(Cl)c(Cl)c2)cs1 [compound 5690819] | -10.3 | -0.9 | -3.1 | -7.3 | -4.6 | 0.636 | – | – | – | – | – | –
17 | O=C(O)CCC(=O)Nc1ccc(-c2nc3ccccc3s2)cc1 [iGP-3] | – | – | – | – | – | – | 15 | 50 | -69 | 20 | 148 | -26
18 | Cc1ccc2[nH]c(-c3ccc(NC(=O)CCC(=O)O)cc3)nc2c1 [iGP-4] | – | – | – | – | – | – | 5 | 69 | -20 | 11 | 49 | -35
19 | O=C(O)CCC(=O)Nc1ccc(-c2nc3cc(C(=O)c4ccccc4)ccc3[nH]2)cc1 [iGP-6] | – | – | – | – | – | – | 3 | 55 | -28 | 17 | 93 | -59
20 | O=C(O)CCC(=O)Nc1ccc(-c2nc3cc(NC(=O)CCC(=O)O)ccc3[nH]2)cc1 [iGP-7] | – | – | – | – | – | – | – | 21 | 3 | 2 | 25 | 4
